Numbered stars: 1 amine (or outer) side, 2 acyl side, 3 side chain; on linkers, the order of the positions; unused ones are H or OH. Bridge positions count the residues as written; N and C are the ends. Square brackets hold non-standard residues; d marks the D form. Side chains are listed from the residue outwards. Peptide text beside a SMILES is read from it. * marks the point of attachment. C20 diacid = O=C(O)CCCCCCCCCCCCCCCCCCC(=O)*; C18 diacid = O=C(O)CCCCCCCCCCCCCCCCC(=O)*; γGlu = O=C(O)[C@H](CCC(=O)[*:2])N[*:1]; Hyp = O=C(O)[C@@H]1C[C@@H](O)CN1; Orn = NCCC[C@H](N)C(=O)O; AEEA = NCCOCCOCC(=O)O

Data on six compounds can be found in patent US20260166128A1, “HUMAN AMYLIN ANALOG, AND DERIVATIVE THEREOF AND USE THEREOF” (priority 2022, published 2026).

For the test, the target named is T1, human amylin receptor (Homo sapiens, UniProt O60896+P30988).
T1 construct: host or cells: CHO-K1/Ga15/AMY3 cells, further stably transfected with a CRE-luciferase plasmid
T1 sequence (P30988 25-474): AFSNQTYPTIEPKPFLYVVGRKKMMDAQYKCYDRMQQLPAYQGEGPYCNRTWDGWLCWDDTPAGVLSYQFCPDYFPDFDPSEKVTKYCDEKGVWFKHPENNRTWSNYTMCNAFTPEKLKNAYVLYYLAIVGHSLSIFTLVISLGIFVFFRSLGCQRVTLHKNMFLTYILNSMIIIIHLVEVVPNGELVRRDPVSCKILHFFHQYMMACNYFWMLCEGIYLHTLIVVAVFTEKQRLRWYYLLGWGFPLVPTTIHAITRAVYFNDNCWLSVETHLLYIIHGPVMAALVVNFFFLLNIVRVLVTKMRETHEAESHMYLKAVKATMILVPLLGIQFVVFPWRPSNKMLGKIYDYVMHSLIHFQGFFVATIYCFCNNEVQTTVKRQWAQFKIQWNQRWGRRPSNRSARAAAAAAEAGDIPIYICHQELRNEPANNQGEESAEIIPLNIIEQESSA
T1 sequence (O60896 24-148 partner): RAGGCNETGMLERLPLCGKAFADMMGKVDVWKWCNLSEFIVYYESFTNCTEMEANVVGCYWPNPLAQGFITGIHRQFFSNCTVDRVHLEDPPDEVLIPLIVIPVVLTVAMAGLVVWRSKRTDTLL
Put plainly: Luciferase assay of amylin derivatives in amylin receptor/CRE-luc CHO cell line. In kind it is cell-based. The note with it: CHO-K1/Ga15/AMY3 CRE-luc cells, 24 hours incubation, F12 medium containing 10% FBS; read-out: EC50.
Method: The experiment was intended to detect the activity or efficacy of the amylin derivatives on a human amylin receptor in vitro by luciferase assay.
50 μL of growth medium (F12 medium containing 10% FBS) was added into each well of a white 96-well plate, and the stably transfected amylin/CRE-lue CHO cells were inoculated into the white 96-well plate at a density of about 20,000 cells/well for activity determination.
One may read the EC50 as the concentration that produces a half-maximal response. As for `CC[C@H](C)[C@H](NC(=O)[C@@H]1CCCN1C(=O)[C@H](CCCCN)NC(=O)[C@H](CC(C)C)NC(=O)[C@H](CC(N)=O)NC(=O)[C@H](CC(N)=O)NC(=O)[C@H](CO)NC(=O)[C@H](CO)NC(=O)[C@H](Cc1c[nH]cn1)NC(=O)[C@H](CCCNC(=N)N)NC(=O)[C@H](CC(C)C)NC(=O)[C@H](Cc1ccccc1)NC(=O)[C@H](CC(=O)O)NC(=O)[C@H](C)NC(=O)[C@H](CC(C)C)NC(=O)[C@H](CCCNC(=N)N)NC(=O)[C@H](CCC(N)=O)NC(=O)[C@@H](NC(=O)[C@H](C)NC(=O)[C@@H]1CSSC[C@H](NC(=O)[C@H](CCCCN)NC(=O)[C@H](CC(=O)O)NC(=O)COCCOCCNC(=O)COCCOCCNC(=O)CCCCCCCCCCCCCCCCCCC(=O)O)C(=O)N[C@@H](CC(N)=O)C(=O)N[C@@H]([C@@H](C)O)C(=O)N[C@@H](C)C(=O)N[C@@H]([C@@H](C)O)C(=O)N1)[C@@H](C)O)C(=O)N[C@@H](CC(C)C)C(=O)N1CCC[C@H]1C(=O)N1CCC[C@H]1C(=O)N[C@H](C(=O)N[C@@H](CC(N)=O)C(=O)N[C@H](C(=O)NCC(=O)N[C@@H](CO)C(=O)N[C@@H](CC(N)=O)C(=O)N[C@H](C(=O)N1CCC[C@H]1C(N)=O)[C@@H](C)O)C(C)C)[C@@H](C)O` [PD194] ({C20 diacid-AEEA-AEEA}-DKCNTATCATQRLADFLRHSSNNLKPILPPTNVGSNTP-NH2; disulfide 3-8 (inferred)), the EC50 came to 0.074 nM.

Turning to “{C20 diacid-γGlu}-KGGGGRCNTATCATQRLADFLRHSSNNLRPILPPTNVGSNTP-NH2 (disulfide 7-12 (inferred)) [PD198]”, the EC50 was 0.029 nM.

As to `CC[C@H](C)[C@H](NC(=O)[C@@H]1CCCN1C(=O)CNC(=O)[C@H](CCCCNC(=O)COCCOCCNC(=O)CC[C@H](NC(=O)CCCCCCCCCCCCCCCCC(=O)O)C(=O)O)NC(=O)[C@H](CC(N)=O)NC(=O)[C@H](CC(N)=O)NC(=O)[C@H](CO)NC(=O)[C@H](CO)NC(=O)[C@H](Cc1c[nH]cn1)NC(=O)[C@H](CCCNC(=N)N)NC(=O)[C@H](CC(C)C)NC(=O)[C@H](Cc1ccccc1)NC(=O)[C@H](CC(=O)O)NC(=O)[C@H](C)NC(=O)[C@H](CC(C)C)NC(=O)[C@H](CCCNC(=N)N)NC(=O)[C@H](CCC(N)=O)NC(=O)[C@@H](NC(=O)[C@H](C)NC(=O)[C@@H]1CSSC[C@H](NC(=O)[C@@H](N)CCCNC(=N)N)C(=O)N[C@@H](CC(N)=O)C(=O)N[C@@H]([C@@H](C)O)C(=O)N[C@@H](C)C(=O)N[C@@H]([C@@H](C)O)C(=O)N1)[C@@H](C)O)C(=O)N[C@@H](CC(C)C)C(=O)N1CCC[C@H]1C(=O)N1CCC[C@H]1C(=O)N[C@H](C(=O)N[C@@H](CC(N)=O)C(=O)N[C@H](C(=O)NCC(=O)N[C@@H](CO)C(=O)N[C@@H](CC(N)=O)C(=O)N[C@H](C(=O)N1C[C@H](O)C[C@H]1C(N)=O)[C@@H](C)O)C(C)C)[C@@H](C)O` [PD111] (H-RCNTATCATQRLADFLRHSSNNK([AEEA-γGlu-C18 diacid])GPILPPTNVGSNT[Hyp]-NH2; disulfide 2-7), the EC50 stood at 0.008 nM.

In the case of `CC[C@H](C)[C@H](NC(=O)[C@@H]1CCCN1C(=O)[C@H](CCCN)NC(=O)[C@H](CC(C)C)NC(=O)[C@H](CC(N)=O)NC(=O)[C@H](CC(N)=O)NC(=O)[C@H](CO)NC(=O)[C@H](CO)NC(=O)[C@H](Cc1c[nH]cn1)NC(=O)[C@H](CCCNC(=N)N)NC(=O)[C@H](CC(C)C)NC(=O)[C@H](Cc1ccccc1)NC(=O)[C@H](CC(=O)O)NC(=O)[C@H](C)NC(=O)[C@H](CC(C)C)NC(=O)[C@H](CCCNC(=N)N)NC(=O)[C@H](CCC(N)=O)NC(=O)[C@@H](NC(=O)[C@H](C)NC(=O)[C@@H]1CSSC[C@H](NC(=O)[C@H](CCCCN)NC(=O)CC[C@H](NC(=O)CCCCCCCCCCCCCCCCCCC(=O)O)C(=O)O)C(=O)N[C@@H](CC(N)=O)C(=O)N[C@@H]([C@@H](C)O)C(=O)N[C@@H](C)C(=O)N[C@@H]([C@@H](C)O)C(=O)N1)[C@@H](C)O)C(=O)N[C@@H](CC(C)C)C(=O)N1CCC[C@H]1C(=O)N1CCC[C@H]1C(=O)N[C@H](C(=O)N[C@@H](CC(N)=O)C(=O)N[C@H](C(=O)NCC(=O)N[C@@H](CO)C(=O)N[C@@H](CC(N)=O)C(=O)N[C@H](C(=O)N1CCC[C@H]1C(N)=O)[C@@H](C)O)C(C)C)[C@@H](C)O` [PD170] ({C20 diacid-γGlu}-KCNTATCATQRLADFLRHSSNNL[Orn]PILPPTNVGSNTP-NH2; disulfide 2-7 (inferred)), the EC50 was 0.041 nM.

In the case of `CC[C@H](C)[C@H](NC(=O)[C@@H]1CCCN1C(=O)CNC(=O)[C@H](CC(C)C)NC(=O)[C@H](CC(N)=O)NC(=O)[C@H](CCCCNC(=O)COCCOCCNC(=O)COCCOCCNC(=O)CC[C@H](NC(=O)CCCCCCCCCCCCCCCCCCC(=O)O)C(=O)O)NC(=O)[C@H](CO)NC(=O)[C@H](CO)NC(=O)[C@H](Cc1c[nH]cn1)NC(=O)[C@H](CCCNC(=N)N)NC(=O)[C@H](CC(C)C)NC(=O)[C@H](Cc1ccccc1)NC(=O)[C@H](CC(=O)O)NC(=O)[C@H](C)NC(=O)[C@H](CC(C)C)NC(=O)[C@H](CCCNC(=N)N)NC(=O)[C@H](CCC(N)=O)NC(=O)[C@@H](NC(=O)[C@H](C)NC(=O)[C@@H]1CSSC[C@H](NC(=O)[C@@H](N)CCCNC(=N)N)C(=O)N[C@@H](CC(N)=O)C(=O)N[C@@H]([C@@H](C)O)C(=O)N[C@@H](C)C(=O)N[C@@H]([C@@H](C)O)C(=O)N1)[C@@H](C)O)C(=O)N[C@@H](CC(C)C)C(=O)N1CCC[C@H]1C(=O)N1CCC[C@H]1C(=O)N[C@H](C(=O)N[C@@H](CC(N)=O)C(=O)N[C@H](C(=O)NCC(=O)N[C@@H](CO)C(=O)N[C@@H](CC(N)=O)C(=O)N[C@H](C(=O)N1C[C@H](O)C[C@H]1C(N)=O)[C@@H](C)O)C(C)C)[C@@H](C)O` [PD091] (H-RCNTATCATQRLADFLRHSSK([AEEA-AEEA-γGlu-C20 diacid])NLGPILPPTNVGSNT[Hyp]-NH2; disulfide 2-7), the EC50 came out at 0.03 nM.

For `CC[C@H](C)[C@H](NC(=O)[C@@H]1CCCN1C(=O)[C@H](CCCCN)NC(=O)[C@H](CC(C)C)NC(=O)[C@H](CC(N)=O)NC(=O)[C@H](CC(N)=O)NC(=O)[C@H](CO)NC(=O)[C@H](CO)NC(=O)[C@H](Cc1c[nH]cn1)NC(=O)[C@H](CCCNC(=N)N)NC(=O)[C@H](CC(C)C)NC(=O)[C@H](Cc1ccccc1)NC(=O)[C@H](CC(=O)O)NC(=O)[C@H](C)NC(=O)[C@H](CC(C)C)NC(=O)[C@H](CCCNC(=N)N)NC(=O)[C@H](CCC(N)=O)NC(=O)[C@@H](NC(=O)[C@H](C)NC(=O)[C@@H]1CSSC[C@H](NC(=O)[C@H](CCCCN)NC(=O)CC[C@H](NC(=O)COCCOCCNC(=O)COCCOCCNC(=O)CCCCCCCCCCCCCCCCCCC(=O)O)C(=O)O)C(=O)N[C@@H](CC(N)=O)C(=O)N[C@@H]([C@@H](C)O)C(=O)N[C@@H](C)C(=O)N[C@@H]([C@@H](C)O)C(=O)N1)[C@@H](C)O)C(=O)N[C@@H](CC(C)C)C(=O)N1CCC[C@H]1C(=O)N1CCC[C@H]1C(=O)N[C@H](C(=O)N[C@@H](CC(N)=O)C(=O)N[C@H](C(=O)NCC(=O)N[C@@H](CO)C(=O)N[C@@H](CC(N)=O)C(=O)N[C@H](C(=O)N1CCC[C@H]1C(N)=O)[C@@H](C)O)C(C)C)[C@@H](C)O` [PD188] ({C20 diacid-AEEA-AEEA-γGlu}-KCNTATCATQRLADFLRHSSNNLKPILPPTNVGSNTP-NH2; disulfide 2-7 (inferred)), the EC50 was 0.025 nM.
